In US20250325677A1, “STAT6 DEGRADERS” (Gilead Sciences, Inc., priority 2024, published 2025) one finds Emax and DC50 data, which are given here for 14 compounds.

Bounds are passed on as bounds.

In the assay the target is STAT6 (Homo sapiens (Human), UniProt P42226). Description: STAT6 degrader assay (HiBiT, HeLa LgBiT clone 4.14). It is filed as cell-based. The conditions noted are these: HeLa LgBiT clone 4.14, 4-24 h; for Emax: read-out: STAT6 degradation Emax (%); for DC50: geometric mean, given for compounds with >80% Emax, read-out: STAT6 degradation DC50. As to the method: This was a HiBit based assay. A HeLa cell line stably transfected with a small protein, LgBit (Large Bit) was obtained from Promega. These cells express endogenous STAT6. A small 11 amino acid gene sequence (HiBiT) was inserted in the STAT6 gene using CRISPR technology. Once STAT6 protein is expressed in the cells, the HiBiT sequence will bind the LgBit in the cells resulting in a functional NanoBiT protein, giving a luminescent tag to STAT6, see FIG. 2.
Sequence of STAT6 (P42226 whole entry): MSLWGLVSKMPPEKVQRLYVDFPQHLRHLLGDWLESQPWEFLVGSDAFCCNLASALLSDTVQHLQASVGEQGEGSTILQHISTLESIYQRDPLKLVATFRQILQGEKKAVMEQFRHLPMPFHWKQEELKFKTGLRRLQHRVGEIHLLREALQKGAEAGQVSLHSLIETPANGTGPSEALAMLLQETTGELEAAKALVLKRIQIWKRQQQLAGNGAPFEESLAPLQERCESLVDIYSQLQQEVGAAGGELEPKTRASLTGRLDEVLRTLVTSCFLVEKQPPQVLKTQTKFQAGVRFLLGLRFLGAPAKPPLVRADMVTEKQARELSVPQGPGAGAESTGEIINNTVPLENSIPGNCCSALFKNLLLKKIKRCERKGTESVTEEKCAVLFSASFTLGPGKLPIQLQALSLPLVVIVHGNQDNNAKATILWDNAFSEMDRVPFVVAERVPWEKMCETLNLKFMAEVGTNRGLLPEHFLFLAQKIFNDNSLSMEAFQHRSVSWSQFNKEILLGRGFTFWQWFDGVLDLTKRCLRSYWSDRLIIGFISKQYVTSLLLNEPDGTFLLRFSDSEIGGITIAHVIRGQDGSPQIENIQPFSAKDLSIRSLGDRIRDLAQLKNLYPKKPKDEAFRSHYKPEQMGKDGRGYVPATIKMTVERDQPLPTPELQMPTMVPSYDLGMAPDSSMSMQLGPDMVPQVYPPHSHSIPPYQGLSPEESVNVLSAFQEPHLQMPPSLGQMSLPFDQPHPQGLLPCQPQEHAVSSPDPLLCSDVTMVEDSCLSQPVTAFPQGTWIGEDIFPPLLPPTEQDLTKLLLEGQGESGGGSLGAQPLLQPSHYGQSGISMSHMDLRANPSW
Single cell clones were prepared and the clone 4.14 was selected for the assay based on that clone showing high luminescence, high STAT6 phosphorylation upon stimulation with IL-4, and inhibition of luminescence when cells were treated with STAT6 siRNA.
HeLa LgBiT clone 4.14 cells were suspended in DMEM with 10% FCS, 1% Pen/Strep, Na-pyrovate and Hygromycin B, at a concentration of 1.25*105 cells pr mL. 5000 cells were added pr well of a 384 well plate and 20 nL of compound was added by Echo® liquid handler. NN6394A (terfenadine, a toxic compound) was added to control wells at 50 μM concentration to establish the assay window. In these wells the cells are dead which equals 100% degradation of STAT6.
After 4-24 h of incubation at 37° C. under 5% CO2/95% air, 5 μL substrate (Nano-GLO®) was added to the wells and the plates were centrifuged and incubated for 0.5 h.
The luminescence in the wells as a measure of non-degraded STAT6 was measured in a plate reader (BMG Pherastar FSX). The measured DC50 (in nM) was determined.
The dose-response curves Examples 3p1, 3e50, 3e17, and 3e51 are shown below (where percent degradation is plotted vs. test compound concentration in M on a log-scale).

For the compound `Cn1c(CN2CCC(c3ccc(C(=O)N4CCC(N5CCN(Cc6ccc7c(c6)n(C)c(=O)n7C6CCC(=O)NC6=O)CC5)CC4)cc3)CC2)cc2c(-c3ccc4[nH]ncc4c3)ccnc21` (centres unmarked) [Example 3j1, 3-(5-((4-(1-(4-(1-((4-(1H-indazol-5-yl)-1-methyl-1H-pyrrolo[2,3-b]pyridin-2-yl)methyl)piperidin-4-yl)benzoyl)piperidin-4-yl)piperazin-1-yl)methyl)-3-methyl-2-oxo-2,3-dihydro-1H-benzo[d]imidazol-1-yl)piperidine-2,6-dione], the Emax was in the range of 20 to 30%.

In the case of `Cn1c(CN2CCC(c3ccc(C(=O)N4CCC(CCn5cc(-c6cccc7c6n(C)c(=O)n7C6CCC(=O)NC6=O)cn5)CC4)cc3)CC2)cc2c(-c3ccc4[nH]ncc4c3)ccnc21` (centres unmarked) [Example 3l2, 3-(4-(1-(2-(1-(4-(1-((4-(1H-indazol-5-yl)-1-methyl-1H-pyrrolo[2,3-b]pyridin-2-yl)methyl)-piperidin-4-yl)benzoyl)piperidin-4-yl)ethyl)-1H-pyrazol-4-yl)-3-methyl-2-oxo-2,3-dihydro-1H-benzo[d]-imidazol-1-yl)piperidine-2,6-dione], the DC50 was 3 nM.

Take `Cn1c(CN2CCC(c3ccc(C(=O)N4CCC(CN5CCC(c6cccc7c6n(C)c(=O)n7C6CCC(=O)NC6=O)CC5)CC4)cc3)CC2)cc2c(-c3ccc4[nH]ncc4c3)ccnc21` (centres unmarked) [Example 3t1, 3-(4-(1-((1-(4-(1-((4-(1H-indazol-5-yl)-1-methyl-1H-pyrrolo[2,3-b]pyridin-2-yl)methyl)piperidin-4-yl)benzoyl)piperidin-4-yl)methyl)piperidin-4-yl)-3-methyl-2-oxo-2,3-dihydro-1H-benzo[d]imidazol-1-yl)piperidine-2,6-dione]: the Emax is below 20%.

`CNc1ccc(-c2ccnc3c2cc([C@H](C)N2CCC(c4ccc(C(=O)N5CCC(CN6CCN(Cc7cc8c(cc7F)n([C@@H]7CCC(=O)NC7=O)c(=O)n8C)C[C@@H]6C)CC5)cc4)CC2)n3C)cn1` [Example 3h22, (R)-3-(6-fluoro-3-methyl-5-(((S)-3-methyl-4-((1-(4-(1-((S)-1-(1-methyl-4-(6-(methylamino)pyridin-3-yl)-1H-pyrrolo[2,3-b]pyridin-2-yl)ethyl)piperidin-4-yl)benzoyl)piperidin-4-yl)methyl)piperazin-1-yl)methyl)-2-oxo-2,3-dihydro-1H-benzo[d]imidazol-1-yl)piperidine-2,6-dione]: the DC50 was determined as 0.9 nM.

For the compound `CNc1ccc(-c2ccnc3c2cc([C@H](C)N2CCC(c4ccc(C(=O)N5CCC(CN6CCN(Cc7cc8c(cc7F)n([C@H]7CCC(=O)NC7=O)c(=O)n8C)C[C@@H]6C)CC5)cc4)CC2)n3C)cn1` [Example 3h23, (S)-3-(6-fluoro-3-methyl-5-(((S)-3-methyl-4-((1-(4-(1-((S)-1-(1-methyl-4-(6-(methylamino)pyridin-3-yl)-1H-pyrrolo[2,3-b]pyridin-2-yl)ethyl)piperidin-4-yl)benzoyl)piperidin-4-yl)methyl)piperazin-1-yl)methyl)-2-oxo-2,3-dihydro-1H-benzo[d]imidazol-1-yl)piperidine-2,6-dione], the DC50 was determined as 1.5 nM.

In the case of `Cc1cc(C(=O)N2CCC(CN3CCN(Cc4ccc5c(c4)n(C4CC4)c(=O)n5C4CCC(=O)NC4=O)C[C@@H]3C)CC2)cc(F)c1C1=CCN([C@@H](C)c2cc3c(-c4ccc(N)nc4)ccnc3n2C)CC1` (stereo partly drawn) [Example 3h15, 3-(5-(((S)-4-((1-(4-(1-((S)-1-(4-(6-aminopyridin-3-yl)-1-methyl-1H-pyrrolo[2,3-b]pyridin-2-yl)ethyl)-1,2,3,6-tetrahydropyridin-4-yl)-3-fluoro-5-methylbenzoyl)piperidin-4-yl)methyl)-3-methyl-piperazin-1-yl)methyl)-3-cyclopropyl-2-oxo-2,3-dihydro-1H-benzo[d]imidazol-1-yl)piperidine-2,6-dione], the 50% degradation concentration (DC50) came to 1.1 nM.

As for `CC(C)[C@H]1CN(Cc2ccc3c(c2)n(C)c(=O)n3C2CCC(=O)NC2=O)CCN1CC1CCN(C(=O)c2ccc(C3CCN([C@@H](C)c4cc5c(-c6ccc(N)nc6)ccnc5n4C)CC3)cc2)CC1` (stereo partly drawn) [Example 3e21, 3-(5-(((S)-4-((1-(4-(1-((S)-1-(4-(6-aminopyridin-3-yl)-1-methyl-1H-pyrrolo[2,3-b]pyridin-2-yl)ethyl)piperidin-4-yl)benzoyl)piperidin-4-yl)methyl)-3-iso-propylpiperazin-1-yl)methyl)-3-methyl-2-oxo-2,3-dihydro-1H-benzo[d]imidazol-1-yl)piperidine-2,6-dione], the DC50 turned out to be 2.8 nM.

In the case of `Cc1cc(C(=O)N2CCC(CN3CCN(Cc4ccc5c(c4)n(C)c(=O)n5C4CCC(=O)NC4=O)CC3)CC2)cc(C)c1C1=CCN(Cc2cc3c(-c4ccc(N)nc4)ccnc3n2C)CC1` (centres unmarked) [Example 3e12, 3-(5-((4-((1-(4-(1-((4-(6-aminopyridin-3-yl)-1-methyl-1H-pyrrolo[2,3-b]pyridin-2-yl)methyl)-1,2,3,6-tetrahydropyridin-4-yl)-3,5-dimethylbenzoyl)piperidin-4-yl)methyl)piperazin-1-yl)methyl)-3-methyl-2-oxo-2,3-dihydro-1H-benzo[d]imidazol-1-yl)piperidine-2,6-dione], the 50% degradation concentration (DC50) was 0.9 nM.

For `C[C@@H]1CN(Cc2ccc3c(c2)n(C)c(=O)n3C2CCC(=O)NC2=O)CCN1CC1CCN(C(=O)c2ccc(C3CCN(Cc4cc5c(-c6ccc(N)nc6)ccnc5n4C)CC3)cc2)CC1` (stereo partly drawn) [Example 3e8, 3-(5-(((R)-4-((1-(4-(1-((4-(6-aminopyridin-3-yl)-1-methyl-1H-pyrrolo[2,3-b]pyridin-2-yl)methyl)piperidin-4-yl)benzoyl)piperidin-4-yl)methyl)-3-methylpiperazin-1-yl)methyl)-3-methyl-2-oxo-2,3-dihydro-1H-benzo[d]imidazol-1-yl)piperidine-2,6-dione], the Emax is 50 to 60%.

For `Cn1c(CN2CCC(c3ccc(C(=O)N4CCC(Cn5cc(-c6cccc7c6n(C)c(=O)n7C6CCC(=O)NC6=O)nn5)CC4)cc3)CC2)cc2c(-c3ccc4[nH]ncc4c3)ccnc21` (centres unmarked) [Example 3t2, 3-(4-(1-((1-(4-(1-((4-(1H-indazol-5-yl)-1-methyl-1H-pyrrolo[2,3-b]pyridin-2-yl)methyl)piperidin-4-yl)benzoyl)piperidin-4-yl)methyl)-1H-1,2,3-triazol-4-yl)-3-methyl-2-oxo-2,3-dihydro-1H-benzo[d]imidazol-1-yl)piperidine-2,6-dione], the Emax was below 20%.

`Cn1c(CN2CCC(c3ccc(C(=O)N4CCC(Cn5cc(-c6ccc7c(c6)n(C)c(=O)n7C6CCC(=O)NC6=O)cn5)CC4)cc3)CC2)cc2c(-c3ccc4[nH]ncc4c3)ccnc21` (centres unmarked) [Example 3l3, 3-(5-(1-((1-(4-(1-((4-(1H-indazol-5-yl)-1-methyl-1H-pyrrolo[2,3-b]pyridin-2-yl)methyl)piperidin-4-yl)benzoyl)piperidin-4-yl)methyl)-1H-pyrazol-4-yl)-3-methyl-2-oxo-2,3-dihydro-1H-benzo[d]imidazol-1-yl)piperidine-2,6-dione]: the Emax is 30 to 40%.

In the case of `CN(C(=O)c1ccc(C2CCN(Cc3cc4c(-c5ccc(N)nc5)ccnc4n3C)CC2)cc1)c1ccc(C2CCN(Cc3ccc4c(c3)oc(=O)n4C3CCC(=O)NC3=O)CC2)cc1` (centres unmarked) [Example 3n3, 4-(1-((4-(6-aminopyridin-3-yl)-1-methyl-1H-pyrrolo[2,3-b]pyridin-2-yl)methyl)piperidin-4-yl)-N-(4-(1-((3-(2,6-dioxopiperidin-3-yl)-2-oxo-2,3-dihydrobenzo[d]oxazol-6-yl)methyl)piperidin-4-yl)phenyl)-N-methylbenzamide], the half-maximal degradation concentration (DC50) came out at 0.1 nM.

Consider `CNc1ccc(-c2ccnc3c2cc([C@H](C)N2CC=C(c4c(C)cc(C(=O)N5CCC(CC6CCN(c7ccc8c(c7)C7(CC7)C(=O)N8C7CCC(=O)NC7=O)CC6)CC5)cc4F)CC2)n3C)cn1` (stereo partly drawn) [Example 3h8, 3-(5′-(4-((1-(3-fluoro-5-methyl-4-(1-((S)-1-(1-methyl-4-(6-(methylamino)pyridin-3-yl)-1H-pyrrolo[2,3-b]pyridin-2-yl)ethyl)-1,2,3,6-tetrahydropyridin-4-yl)benzoyl)piperidin-4-yl)methyl)piperidin-1-yl)-2′-oxospiro[cyclopropane-1,3′-indolin]-1′-yl)piperidine-2,6-dione], for which the DC50 came out at 28.4 nM.

Consider `Cc1cc(C(=O)N(C)c2ccc(C3CCN(Cc4ccc5c(c4)n(C)c(=O)n5C4CCC(=O)NC4=O)CC3)cc2)cc(F)c1C1=CCN(Cc2cc3c(-c4ccc(N)nc4)ccnc3n2C)CC1` (centres unmarked) [Example 3h39, 4-(1-((4-(6-aminopyridin-3-yl)-1-methyl-1H-pyrrolo[2,3-b]pyridin-2-yl)methyl)-1,2,3,6-tetrahydropyridin-4-yl)-N-(4-(1-((1-(2,6-dioxopiperidin-3-yl)-3-methyl-2-oxo-2,3-dihydro-1H-benzo[d]imidazol-5-yl)methyl)piperidin-4-yl)phenyl)-3-fluoro-N,5-dimethylbenzamide], for which the DC50 came out at 0.1 nM.
